Series [1] has as its system Erysiphe graminis. In words: Fungicidal activity in preventive application (5 days) against Erysiphe graminis on wheat. The class given is in vivo, Erysiphe graminis on wheat (Salgemma variety). Conditions: 125 ppm, leaf spray, infection 5 days after treatment, evaluation after 12 days, percentage scale 100 = healthy plant, 0 = completely infected plant; for Activity NT (parts which had developed during the test): non-treated parts (NT). Here is the method:
Determination of the Fungicidal Activity in Preventive Application (5 Days) Against Erysiphe graminis on Wheat.
(§1) Leaves of wheat plants of the Salgemma variety, grown in pots in a conditioned environment kept at 20° C. and 70% of relative humidity (R.H.), were treated by spraying on both sides of the leaves with the compounds under examination, dispersed in hydroacetonic solutions at 20% by volume of acetone.
After remaining 5 days in a conditioned environment, the plants were infected under dry conditions by shaking over them, in order to distribute the inoculum, plants previously infected by Erysiphe graminis.
The plants were then maintained in the same cell, in a humidity-saturated environment and at a temperature ranging from 18 to 24° C. for 12 days.
At the end of this period, the external symptoms of the pathogen appeared and it was therefore possible to proceed with the evaluation of the intensity of the infection, on both the parts treated directly with the products (T), and also on the parts which had developed during the test (NT), by means of a visible percentage evaluation scale of the area of affected leafs; the scale comprises, as extremes, the value 100 (healthy plant) and the value 0 (completely infected plant).

Series [2] relates to wheat plants. The series can be described thus: Phytotoxicity (percentage of leaf necrosis) induced on wheat plants. The class given is in vivo, wheat (Salgemma variety). The conditions noted are these: 125 ppm on wheat, scale 0 = completely healthy plant to 100 = completely necrotized plant. Here is the method: as §1
At the same time, the phytotoxicity was evaluated (percentage of leaf necrosis) induced on the wheat plants by the application of the products: in this case, the evaluation scale varies from 0 (completely healthy plant) to 100 (completely necrotized plant).

With `CC1CC(C)(C)c2cccc(NC(=O)c3cn(C)nc3C(F)F)c21` (stereo not drawn) [CR-1, 3-difluoromethyl-1-methyl-N-(1,1,3-trimethyl-4-indanyl)-4-pyrazolecarboxamide], in series [1], the “Activity NT (parts which had developed during the test)” value (“Activity NT” for short) was determined as 65 and the “Activity T (parts treated directly with the products)” value (“Activity T” below) turned out to be 70. The Phytotoxicity in series [2] is reported as 10.
The matching figures for `Cc1c(C(=O)Nc2ccc(F)c3c2CCC3(C)C)c(C(F)(F)F)nn1C` [CR-2, 1,5-dimethyl-3-trifluoro-methyl-N-(1,1-dimethyl-7-fluoro-4-indanyl)-4-pyrazolecarboxamide]: 15, 25 and 0.
With `Cc1nn(C)c(C)c1C(=O)Nc1c(F)ccc2c1CCC2(C)C` [CR-3, 1,3,5-trimethyl-N-(1,1-dimethyl-5-fluoro-4-indanyl)-4-pyrazolecarboxamide], in series [1], the “Activity NT” value stood at 0 and the “Activity T” value is 10. This compound also showed a Phytotoxicity in series [2] of 0.
For `CC1CC(C)(C)c2c(F)ccc(NC(=O)c3cn(C)nc3C(F)F)c21` (stereo not drawn) [Compound N. 1, 3-difluoromethyl-N-(7-fluoro-1,1,3-trimethyl-4-indanyl)-1-methyl-4-pyrazolecarboxamide], in series [1], the “Activity NT” value came to 90 and the “Activity T” value is listed as 95. Moreover, the Phytotoxicity in series [2] turned out to be 0.

For the origin of these results see patent US10149473B2, “Aminoindanes amides having a high fungicidal activity and their phytosanitary compositions” (STITCHING I-F PRODUCT COLLABORATION, priority 2010, dated 2018).
